For 14 compounds, EC50 results are on record in patent publication US8906929B2, “Inhibitors of human immunodeficiency virus replication” (priority 2012, dated 2014).

The experiment has as its system recombinant NL-Rluc virus. Briefly: Inhibition of HIV replication (NL-RLuc virus in MT-2 cells, luciferase readout). It counts as cell-based. The following applies: Human immunodeficiency virus 1, MT2, 120 h, 5 days of incubation, 10% FBS.
A word on the EC50: it is the concentration needed to bring the measured effect to its halfway point. Regarding `Cc1cccc2c1-c1cccc(c1)-c1cc3nc(C)c([C@H](OC(C)(C)C)C(=O)O)c(n3n1)N1CCC(C)(CC1)OCCCC[C@H](C)O2` [Example 77, (2S)-2-(tert-Butoxy)-2-[(22S)-4,16,22,28-tetramethyl-21,27-dioxa-1,5,7,8-tetraazahexacyclo[26.2.2.1^6,^9.1^10,^14.0^2,^7.0^15,^20]tetratriaconta-2,4,6(34),8,10(33), 11, 13, 15(20),16,18-decaen-3-yl]acetic acid], the EC50 stood at 21 nM.

`Cc1cc2c(cc1F)O[C@@H](C)CC=CCOC1(C)CCN(CC1)c1c([C@H](OC(C)(C)C)C(=O)O)c(C)nc3cc(nn13)-c1cccc-2c1` [Example 78, (2S)-2-(tert-Butoxy)-2-[(22S)-18-fluoro-4,17,22,28-tetramethyl-21,27-dioxa-1,5,7,8-tetraazahexacyclo[26.2.2.1^6,^9.1^10,^14.0^2,^7.0^15,^20]tetratriaconta-2,4,6(34),8,10(33),11,13, 15(20), 16,18,24-undecaen-3-yl]acetic acid]: the EC50 worked out at 31 nM.

Take `Cc1cc2c(cc1F)O[C@@H](C)CCCCOC1(C)CCN(CC1)c1c([C@H](OC(C)(C)C)C(=O)O)c(C)nc3cc(nn13)-c1cccc-2c1` [Example 79, (2S)-2-(tert-Butoxy)-2-[(22S)-18-fluoro-4,17,22,28-tetramethyl-21,27-dioxa-1,5,7,8-tetraazahexacyclo[26.2.2.1^6,^9.1^10,^14.0^2,^7.0^15,^20]tetratriaconta-2,4,6(34),8,10(33),11,13,15(20),16,18-decaen-3-yl]acetic acid]: the EC50 was determined as 38 nM.

For `Cc1nc2cc3nn2c(c1[C@H](OC(C)(C)C)C(=O)O)N1CCC(C)(CC1)OCCCC[C@H](C)Oc1ccc(F)cc1-c1cccc-3c1` [Example 81, (2S)-2-(tert-Butoxy)-2-[(22S)-17-fluoro-4,22,28-trimethyl-21,27-dioxa-1,5,7,8-tetraazahexacyclo[26.2.2.1^6,^9.1^10,^14.0^2,^7.0^15,^20]tetratriaconta-2,4,6(34),8,10(33),11,13, 15(20),16,18-decaen-3-yl]acetic acid], the EC50 worked out at 13 nM.

Consider `Cc1nc2cc3nn2c(c1[C@H](OC(C)(C)C)C(=O)O)N1CCC(C)(CC1)OCCCC[C@H](C)Oc1ccc(Cl)cc1-c1cccc-3c1` [Example 82, (2S)-2-(tert-Butoxy)-2-[(22S)-17-chloro-4,22,28-trimethyl-21,27-dioxa-1,5,7,8-tetraazahexacyclo[26.2.2.1^6,^9.1^10,^14.0^2,^7.0^15,^20]tetratriaconta-2,4,6(34),8,10(33), 11, 13, 15 (20),16,18-decaen-3-yl]acetic acid], for which the EC50 amounted to 20 nM.

With `Cc1nc2cc3nn2c(c1[C@H](OC(C)(C)C)C(=O)O)N1CCC(C)(CC1)OCCCC[C@H](C)Oc1cc(F)ccc1-c1cccc-3c1` [Example 83, (2S)-2-(tert-Butoxy)-2-[(22S)-18-fluoro-4,22,28-trimethyl-21,27-dioxa-1,5,7,8-tetraazahexacyclo[26.2.2.1^6,^9.1^10,^14.0^2,^7.0^15,^20]tetratriaconta-2,4, 6(34), 8, 10(33), 11, 13, 15(20),16,18-decaen-3-yl]acetic acid], the EC50 was found to be 25 nM.

Take `Cc1nc2cc3nn2c(c1[C@H](OC(C)(C)C)C(=O)O)N1CCC(C)(CC1)OCCCC[C@H](C)Oc1cccc(F)c1-c1cccc-3c1` [Example 84, (2S)-2-(tert-Butoxy)-2-[(22S)-16-fluoro-4,22,28-trimethyl-21,27-dioxa-1,5,7,8-tetraazahexacyclo[26.2.2.1^6,^9.1^10,^14.0^2,^7.0^15,^20]tetratriaconta-2,4,6(34),8,10(33),11,13,15(20),16,18-decaen-3-yl]acetic acid]: the concentration giving a half-maximal response (EC50) was determined as 12 nM.

Turning to `Cc1nc2cc3nn2c(c1[C@H](OC(C)(C)C)C(=O)O)N1CCC(C)(CC1)OCCCC[C@H](C)Oc1cccc(Cl)c1-c1cccc-3c1` [Example 85, (2S)-2-(tert-Butoxy)-2-[(22S)-16-chloro-4,22,28-trimethyl-21,27-dioxa-1,5,7,8-tetraazahexacyclo[26.2.2.1^6,^9.1^10,^14.0^2,^7.0^15,^20]tetratriaconta-2,4, 6(34), 8, 10(33), 11, 13, 15 (20),16,18-decaen-3-yl]acetic acid], the EC50 amounted to 21 nM.

Take `Cc1nc2cc3nn2c(c1[C@H](OC(C)(C)C)C(=O)O)N1CCC(C)(CC1)OCCCC[C@H](C)Oc1cc(Cl)ccc1-c1cccc-3c1` [Example 86, (2S)-2-(tert-Butoxy)-2-[(22S)-18-chloro-4,22,28-trimethyl-21,27-dioxa-1,5,7,8-tetraazahexacyclo[26.2.2.1^6,^9. 1^10,^14.0^2,^7.0^15,^20]tetratriaconta-2,4,6(34),8,10(33), 11, 13, 15 (20),16,18-decaen-3-yl]acetic acid]: the EC50 worked out at 52 nM.

For `Cc1nc2cc3nn2c(c1[C@H](OC(C)(C)C)C(=O)O)N1CCC(C)(CC1)OCCCC[C@H](C)Oc1cc(C#N)ccc1-c1cccc-3c1` [Example 87, (2S)-2-(tert-Butoxy)-2-[(22S)-18-cyano-4,22,28-trimethyl-21,27-dioxa-1,5,7,8-tetraazahexacyclo[26.2.2.1^6,^9.1^10,^14.0^2,^7.0^15,^20]tetratriaconta-2,4,6(34),8,10(33), 11, 13, 15 (20),16,18-decaen-3-yl]acetic acid], the EC50 came out at 9 nM.

For `Cc1cc2c(cc1Cl)-c1cccc(c1)-c1cc3nc(C)c([C@H](OC(C)(C)C)C(=O)O)c(n3n1)N1CCC(C)(CC1)OCCCC[C@H](C)O2` [Example 88, (2S)-2-(tert-Butoxy)-2-[(22S)-17-chloro-4,18,22,28-tetramethyl-21,27-dioxa-1,5,7,8-tetraazahexacyclo[26.2.2.1^6,^9.1^10,^14.0^2,^7.0^15,^20]tetratriaconta-2,4, 6(34), 8, 10(33), 11, 13, 15 (20),16,18-decaen-3-yl]acetic acid], the concentration giving a half-maximal response (EC50) turned out to be 86 nM.

As to `Cc1nc2cc3nn2c(c1[C@H](OC(C)(C)C)C(=O)O)N1CCC(C)(CC1)OCCCC[C@H](C)Oc1ccc(Cl)c(C)c1-c1cccc-3c1` [Example 89, (2S)-2-(tert-Butoxy)-2-[(22S)-17-chloro-4,16,22,28-tetramethyl-21,27-dioxa-1,5,7,8-tetraazahexacyclo[26.2.2.1^6,^9.1^10,^14.0^2,^7.0^15,^20]tetratriaconta-2,4, 6(34), 8, 10(33), 11, 13, 15(20),16,18-decaen-3-yl]acetic acid], the EC50 was determined as 110 nM.

Take `Cc1cc2c(cc1Cl)-c1cccc(c1)-c1cc3nc(C)c([C@H](OC(C)(C)C)C(=O)O)c(n3n1)N1CCC(C)(CC1)OCCCC[C@@H](C)O2` [Example 90, (2S)-2-(tert-Butoxy)-2-[(22R)-17-chloro-4,18,22,28-tetramethyl-21,27-dioxa-1,5,7,8-tetraazahexacyclo[26.2.2.1^6,^9.1^10,^14.0^2,^7.0^15,^20]tetratriaconta-2,4, 6(34), 8, 10(33), 11, 13, 15 (20),16,18-decaen-3-yl]acetic acid]: the half-maximal effective concentration (EC50) is 157 nM.

As to `Cc1cc2c(cc1F)-c1cccc(c1)-c1cc3nc(C)c([C@H](OC(C)(C)C)C(=O)O)c(n3n1)N1CCC(C)(CC1)OCCCC[C@H](C)O2` [Example 91, (2S)-2-(tert-Butoxy)-2-[(22S)-17-fluoro-4,18,22,28-tetramethyl-21,27-dioxa-1,5,7,8-tetraazahexacyclo[26.2.2.1^6,^9.1^10,^14.0^2,^7.0^15,^20]tetratriaconta-2,4,6(34),8,10(33), 11, 13, 15(20),16,18-decaen-3-yl]acetic acid], the EC50 came to 47 nM.
